Columns and labels:
Test in all cases: DNA polymerase activity inhibition
Type in all cases: biochemical
E. coli pol I = biological target: T1, E. coli pol I (Escherichia coli, UniProt P00582)
T1 construct: The Klenow fragment of pol I from E. coli was purchased from Worthington Biochemical Corp; purchased Worthington Biochemical Corp. (Freehold, NJ, USA)
Text: (§1) Pol α was purified from calf thymus by immunoaffinity column chromatography as described by Tamai et al.. Recombinant rat pol β was purified from Escherichia coli JMpβ5 as described by Date et al.. The human pol γ catalytic gene was cloned into pFastBac. Histidine-tagged enzyme was expressed using the BACTO-BAC HT Baculovirus Expression System according to the manufacturer's instructions (Life Technologies, Frederick, MD, USA) and purified using ProBound resin (Invitrogen Japan, Tokyo Japan). Human pols δ and ε were purified by nuclear fractionation of human peripheral blood cancer cells (Molt-4) using the second subunit of pol δ and ε-conjugated affinity column chromatography, respectively. A truncated form of human pol η (residues 1–511) tagged with His6 at its C-terminal was expressed in E. coli cells and purified as described by Kusumoto et al.. A recombinant mouse pol ι tagged with His6 at its C-terminal was expressed and purified by Ni–NTA column chromatography. A truncated form of pol κ (residues 1–560) with 6× His-tags attached at the C-terminus was overexpressed in E. coli and purified as described by Ohashi et al.. Recombinant human His-pol λ was overexpressed and purified according to a method described by Shimazaki et al.. Recombinant human His-pol μ was overexpressed in E. coli BL21 and purified using Glutathione Sepharose 4B (GE Healthcare Bio-Science Corp., Piscataway, NJ, USA) column chromatography according to the method for pol λ preparation by Shimazaki et al.. Pol α from a higher plant, cauliflower, was purified from the inflorescence structure according to the methods outlined by Sakaguchi et al.. Recombinant rice (Oryza sativa L. cv. Nipponbare) pol λ tagged with His6 at the C-terminus was expressed in E. coli and purified as described by Uchiyama et al.. Calf TdT, Taq pol, T4 pol, T7 RNA polymerase, and T4 polynucleotide kinase were purchased from Takara Bio Inc. (Kyoto, Japan). The Klenow fragment of pol I from E. coli was purchased from Worthington Biochemical Corp. (Freehold, NJ, USA). Bovine pancreas deoxyribonuclease I was obtained from Stratagene Cloning Systems (La Jolla, CA, USA).
(§2) The reaction mixtures for calf pol α, rat pol β, plant pol α, and prokaryotic pols have been described previously, [35]; those for pol γ as well as pols δ and ε were previously described by Umeda et al. and Ogawa et al., respectively. Those for pols η, ι, and κ were the same as for pol α, and those for pols λ and μ were the same as for pol β. For the pol reactions, poly(dA)/oligo(dT)18 (A/T, 2/1) and dTTP were used as the DNA template-primer substrate and nucleotide (dNTP; 2′-deoxynucleoside-5′-triphosphate) substrate, respectively. For the TdT reactions, oligo(dT)18 (3′-OH) and dTTP were used as the DNA primer substrate and nucleotide substrate, respectively.
(§3) The chemically synthesized 5-O-acyl plumbagins (2a–j) were dissolved in distilled dimethyl sulfoxide (DMSO) to various concentrations and sonicated for 30 s. Subsequently, 4 µL aliquots were mixed with 16 µL of each enzyme (0.05 units) in 50 mM Tris-HCl at pH 7.5, containing 1 mM dithiothreitol, 50% glycerol (by vol), and 0.1 mM ethylenediaminetetraacetic acid and held at 0°C for 10 min. These inhibitor-enzyme mixtures in 8 µL volumes were next added to 16 µL of enzyme standard reaction mixture and incubated at 37°C for 60 min, except for Taq pol, which was incubated at 74°C for 60 min. Activity without inhibitor was considered 100%, and the relative activity was determined for each inhibitor concentration. One unit of pol activity was defined as the amount of each enzyme that catalyzed the incorporation of 1 nmol dTTP into synthetic DNA template primers in 60 min, at 37°C, and under standard reaction conditions, [35].

Calf pol α = biological target: T2, Calf pol α (Bos taurus, UniProt A0AAA9TD94); details: 0.05 units enzyme; mean ± SD (n = 3)
T2 construct: from tissue; host or cells: calf thymus
Text: as §1, §2, §3

Human pol η = biological target: T3, Human pol η (Homo sapiens, UniProt Q9Y253); details: 0.05 units enzyme; mean ± SD (n = 3)
T3 construct: A truncated form of human pol η (residues 1–511) tagged with His6 at its C-terminal; His6 (C); made in house; host or cells: E. coli
Text: as §1, §2, §3

Rat pol β = biological target: T4, Rat pol β (Rattus norvegicus, UniProt P06766); details: 0.05 units enzyme; mean ± SD (n = 3)
T4 construct: made in house; host or cells: Escherichia coli JMpβ5
Text: as §1, §2, §3

Human pol δ = biological target: T5, Human pol δ (Homo sapiens, UniProt P28340); details: 0.05 units enzyme; mean ± SD (n = 3)
T5 construct: purified by nuclear fractionation of human peripheral blood cancer cells (Molt-4); endogenous in cells; host or cells: Molt-4
Text: as §1, §2, §3

Human pol γ = biological target: T6, Human pol γ (Homo sapiens, UniProt P54098)
T6 construct: His tag; made in house
Text: as §1, §2, §3

Human pol κ = biological target: T7, Human pol κ (Homo sapiens, UniProt Q9UBT6); details: 0.05 units enzyme; mean ± SD (n = 3)
T7 construct: A truncated form of pol κ (residues 1–560) with 6× His-tags attached at the C-terminus; 6× His (C); made in house; host or cells: E. coli
T7 sequence (Q9UBT6 1-560): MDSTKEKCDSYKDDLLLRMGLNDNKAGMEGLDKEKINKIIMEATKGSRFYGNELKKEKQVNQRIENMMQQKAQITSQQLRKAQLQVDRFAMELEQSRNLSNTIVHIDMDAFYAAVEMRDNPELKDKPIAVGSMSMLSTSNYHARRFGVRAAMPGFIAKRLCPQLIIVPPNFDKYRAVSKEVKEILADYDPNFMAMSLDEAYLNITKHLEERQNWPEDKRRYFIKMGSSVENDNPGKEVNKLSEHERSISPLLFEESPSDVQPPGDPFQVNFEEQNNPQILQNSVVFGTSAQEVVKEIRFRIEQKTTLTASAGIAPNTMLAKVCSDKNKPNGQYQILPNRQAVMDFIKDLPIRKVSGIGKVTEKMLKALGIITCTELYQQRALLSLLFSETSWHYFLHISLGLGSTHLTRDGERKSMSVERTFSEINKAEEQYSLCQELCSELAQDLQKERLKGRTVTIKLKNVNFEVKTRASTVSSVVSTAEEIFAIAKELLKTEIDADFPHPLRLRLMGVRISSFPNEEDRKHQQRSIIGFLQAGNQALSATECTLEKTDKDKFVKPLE
Text: as §1, §2, §3

Taq pol = biological target: T8, Taq pol (Thermus aquaticus, UniProt P19821)
T8 construct: purchased Takara Bio Inc. (Kyoto, Japan)
Text: as §1, §2, §3

T8 sequence (P19821 whole entry): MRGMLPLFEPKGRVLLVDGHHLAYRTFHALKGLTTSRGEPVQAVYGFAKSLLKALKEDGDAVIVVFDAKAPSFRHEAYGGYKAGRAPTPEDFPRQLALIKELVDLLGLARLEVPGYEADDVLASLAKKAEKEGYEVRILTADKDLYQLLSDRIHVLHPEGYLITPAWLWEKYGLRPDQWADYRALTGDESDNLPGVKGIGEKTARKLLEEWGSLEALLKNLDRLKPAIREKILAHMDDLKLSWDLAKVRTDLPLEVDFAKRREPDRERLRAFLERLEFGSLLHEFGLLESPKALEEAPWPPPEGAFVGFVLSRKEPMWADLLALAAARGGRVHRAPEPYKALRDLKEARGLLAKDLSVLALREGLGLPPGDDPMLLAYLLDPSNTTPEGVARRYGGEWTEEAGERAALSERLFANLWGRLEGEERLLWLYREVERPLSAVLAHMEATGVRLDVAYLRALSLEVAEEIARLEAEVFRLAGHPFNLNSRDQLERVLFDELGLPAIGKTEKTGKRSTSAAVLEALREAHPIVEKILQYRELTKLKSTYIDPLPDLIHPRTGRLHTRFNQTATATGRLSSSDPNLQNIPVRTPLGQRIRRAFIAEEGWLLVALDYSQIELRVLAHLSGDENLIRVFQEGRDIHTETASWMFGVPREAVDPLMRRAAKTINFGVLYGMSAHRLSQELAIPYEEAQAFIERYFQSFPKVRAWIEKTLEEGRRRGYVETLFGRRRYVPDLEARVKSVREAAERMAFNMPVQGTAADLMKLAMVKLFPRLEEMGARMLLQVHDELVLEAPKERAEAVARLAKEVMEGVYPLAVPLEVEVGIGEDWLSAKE
T1 sequence (P00582 324-928): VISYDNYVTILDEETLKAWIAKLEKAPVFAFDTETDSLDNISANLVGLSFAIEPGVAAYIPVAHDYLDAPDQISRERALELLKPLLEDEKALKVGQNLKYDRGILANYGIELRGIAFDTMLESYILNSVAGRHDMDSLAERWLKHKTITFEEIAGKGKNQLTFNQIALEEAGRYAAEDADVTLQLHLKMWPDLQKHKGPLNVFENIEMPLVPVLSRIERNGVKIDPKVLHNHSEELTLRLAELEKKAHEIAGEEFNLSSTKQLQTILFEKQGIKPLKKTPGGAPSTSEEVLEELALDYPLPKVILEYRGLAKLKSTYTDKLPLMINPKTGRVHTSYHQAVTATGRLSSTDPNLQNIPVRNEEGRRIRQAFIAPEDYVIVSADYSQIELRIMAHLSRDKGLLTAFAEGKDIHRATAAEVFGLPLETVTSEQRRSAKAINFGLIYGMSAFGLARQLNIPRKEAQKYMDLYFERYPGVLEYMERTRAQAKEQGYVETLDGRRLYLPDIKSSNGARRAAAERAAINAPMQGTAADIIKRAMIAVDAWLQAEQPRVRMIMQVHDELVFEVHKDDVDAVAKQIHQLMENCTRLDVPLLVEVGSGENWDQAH
T6 sequence (P54098 whole entry): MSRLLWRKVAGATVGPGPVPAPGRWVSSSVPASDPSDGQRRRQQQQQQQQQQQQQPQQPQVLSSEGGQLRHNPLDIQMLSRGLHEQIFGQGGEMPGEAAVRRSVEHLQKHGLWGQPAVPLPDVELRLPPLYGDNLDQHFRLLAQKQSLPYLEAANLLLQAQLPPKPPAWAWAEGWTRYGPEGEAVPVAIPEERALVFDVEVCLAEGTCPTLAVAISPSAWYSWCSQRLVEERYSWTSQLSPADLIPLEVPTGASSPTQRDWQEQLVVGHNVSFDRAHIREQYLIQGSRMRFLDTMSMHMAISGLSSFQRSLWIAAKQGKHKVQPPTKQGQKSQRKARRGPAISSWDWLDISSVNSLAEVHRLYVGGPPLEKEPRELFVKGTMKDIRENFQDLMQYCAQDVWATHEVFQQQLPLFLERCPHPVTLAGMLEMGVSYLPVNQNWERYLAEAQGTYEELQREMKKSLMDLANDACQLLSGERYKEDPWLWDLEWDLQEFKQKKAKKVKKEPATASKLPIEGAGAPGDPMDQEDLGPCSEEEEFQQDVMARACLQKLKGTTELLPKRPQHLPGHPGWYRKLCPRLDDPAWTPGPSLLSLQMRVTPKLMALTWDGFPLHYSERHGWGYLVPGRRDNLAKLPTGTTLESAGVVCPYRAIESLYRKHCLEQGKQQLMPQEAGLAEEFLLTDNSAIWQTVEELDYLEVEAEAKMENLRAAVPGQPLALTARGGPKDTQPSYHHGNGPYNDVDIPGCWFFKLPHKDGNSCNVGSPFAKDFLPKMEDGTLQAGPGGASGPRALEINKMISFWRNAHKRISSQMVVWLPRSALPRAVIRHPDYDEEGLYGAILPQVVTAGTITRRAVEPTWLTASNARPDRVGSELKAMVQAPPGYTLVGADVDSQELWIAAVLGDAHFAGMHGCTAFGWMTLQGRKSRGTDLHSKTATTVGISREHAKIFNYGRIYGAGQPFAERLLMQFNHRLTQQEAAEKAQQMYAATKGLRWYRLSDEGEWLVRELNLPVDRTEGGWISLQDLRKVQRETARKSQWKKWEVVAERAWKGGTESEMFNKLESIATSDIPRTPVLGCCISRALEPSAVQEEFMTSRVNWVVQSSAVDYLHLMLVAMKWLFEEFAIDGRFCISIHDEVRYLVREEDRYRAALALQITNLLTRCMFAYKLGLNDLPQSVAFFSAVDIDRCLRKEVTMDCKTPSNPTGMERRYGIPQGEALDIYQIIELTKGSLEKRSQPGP
T2 sequence (A0AAA9TD94 1-1441): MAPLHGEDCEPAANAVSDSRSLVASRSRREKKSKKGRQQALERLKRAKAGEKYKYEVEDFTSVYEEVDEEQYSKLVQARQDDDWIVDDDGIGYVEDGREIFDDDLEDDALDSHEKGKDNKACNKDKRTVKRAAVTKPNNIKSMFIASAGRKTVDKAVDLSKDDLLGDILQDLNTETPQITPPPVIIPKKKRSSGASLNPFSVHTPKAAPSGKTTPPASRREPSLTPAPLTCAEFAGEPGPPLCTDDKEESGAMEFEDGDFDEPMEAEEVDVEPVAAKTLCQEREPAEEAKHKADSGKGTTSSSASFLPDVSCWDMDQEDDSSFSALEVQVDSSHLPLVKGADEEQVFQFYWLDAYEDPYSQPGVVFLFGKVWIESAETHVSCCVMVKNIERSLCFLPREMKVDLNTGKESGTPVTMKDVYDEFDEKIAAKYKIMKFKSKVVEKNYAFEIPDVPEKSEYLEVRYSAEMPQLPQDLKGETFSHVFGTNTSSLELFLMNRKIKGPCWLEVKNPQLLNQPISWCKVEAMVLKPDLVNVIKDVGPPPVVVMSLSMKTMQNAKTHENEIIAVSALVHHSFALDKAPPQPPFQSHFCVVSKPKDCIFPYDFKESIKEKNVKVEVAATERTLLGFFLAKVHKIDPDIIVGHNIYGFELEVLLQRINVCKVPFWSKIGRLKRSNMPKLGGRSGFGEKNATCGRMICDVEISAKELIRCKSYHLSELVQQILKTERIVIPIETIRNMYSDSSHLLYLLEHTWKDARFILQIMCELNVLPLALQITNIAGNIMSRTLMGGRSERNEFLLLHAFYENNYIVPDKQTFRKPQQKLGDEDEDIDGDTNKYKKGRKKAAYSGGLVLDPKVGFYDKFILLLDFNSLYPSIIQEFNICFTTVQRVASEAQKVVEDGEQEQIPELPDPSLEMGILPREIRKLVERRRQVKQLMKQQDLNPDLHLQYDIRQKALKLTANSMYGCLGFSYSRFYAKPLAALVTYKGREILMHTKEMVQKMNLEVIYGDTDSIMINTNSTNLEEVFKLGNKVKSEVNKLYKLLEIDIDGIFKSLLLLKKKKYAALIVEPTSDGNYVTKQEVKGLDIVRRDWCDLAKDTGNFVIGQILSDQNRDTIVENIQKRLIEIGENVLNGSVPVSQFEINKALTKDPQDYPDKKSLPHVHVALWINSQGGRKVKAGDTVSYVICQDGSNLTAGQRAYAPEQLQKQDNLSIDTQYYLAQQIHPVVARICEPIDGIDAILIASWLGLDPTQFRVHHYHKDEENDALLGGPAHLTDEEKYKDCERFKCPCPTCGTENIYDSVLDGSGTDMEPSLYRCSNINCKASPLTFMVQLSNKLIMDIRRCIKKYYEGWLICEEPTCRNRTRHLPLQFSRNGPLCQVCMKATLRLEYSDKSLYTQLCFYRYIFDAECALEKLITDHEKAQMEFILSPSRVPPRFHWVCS
T3 sequence (Q9Y253 1-511): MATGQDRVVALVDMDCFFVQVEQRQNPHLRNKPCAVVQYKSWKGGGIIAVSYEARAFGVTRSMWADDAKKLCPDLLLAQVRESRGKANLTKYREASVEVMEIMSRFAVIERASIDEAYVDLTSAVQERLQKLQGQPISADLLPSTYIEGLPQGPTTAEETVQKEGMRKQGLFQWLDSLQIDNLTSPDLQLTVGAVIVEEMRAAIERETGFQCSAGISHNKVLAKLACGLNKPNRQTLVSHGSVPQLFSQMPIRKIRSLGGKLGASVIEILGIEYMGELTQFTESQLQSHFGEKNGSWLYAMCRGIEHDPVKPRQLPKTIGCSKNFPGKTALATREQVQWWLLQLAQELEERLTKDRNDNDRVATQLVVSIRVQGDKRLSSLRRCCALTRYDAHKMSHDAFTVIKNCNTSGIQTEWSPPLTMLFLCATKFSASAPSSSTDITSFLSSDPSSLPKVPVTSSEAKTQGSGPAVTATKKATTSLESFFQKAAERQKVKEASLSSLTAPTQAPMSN

CCCCCCCC/C=C\CCCCCCCC(=O)Oc1cccc2c1C(=O)C=C(C)C2=O [2f, 5-O-oleoyl-2-methyl-1,4-naphthoquinone]
effect on enzyme activity (in words) (E. coli pol I): had no effect | IC50 (E. coli pol I; 0.05 units enzyme): > 100 µM | IC50 (Calf pol α): 4.8 ± 0.38 µM | IC50 (Human pol η): 7.9 ± 0.42 µM | IC50 (Rat pol β): 10.3 ± 0.46 µM | IC50 (Human pol δ): 5.3 ± 0.41 µM | inhibition of pol γ relative activity (in words) (Human pol γ; 10 µM compound, Fig. 4): strongest inhibition | IC50 (Human pol γ; 0.05 units enzyme, mean ± SD (n = 3)): 4.5 ± 0.4 µM | IC50 (Human pol κ): 7.6 ± 0.41 µM | effect on enzyme activity (in words) (Taq pol): had no effect | IC50 (Taq pol; 0.05 units enzyme, 74°C): > 100 µM

— article PMC3919815, “Anti-Tumor Effects of Novel 5-O-Acyl Plumbagins Based on the Inhibition of Mammalian DNA Replicative Polymerase Activity” (PLoS ONE, 2014)
